pIC50: −log10 of the molar value.
What was measured:
[1] = molecular target: Human SGLT2 (hSGLT2) (Homo sapiens (Human), UniProt P31639); assay: Inhibitory effects on human SGLT2 activities (14C-AMG uptake, sodium-dependent glucose transport assay); format: cell-based; details: hSGLT2-expressing CHO cells, 37° C. for 2 h, single determinations
Source text: Test 1: Cloning and Cell Line Construction for Human SGLT2
Human SGLT2 (hSGLT2) gene was amplified by PCR from cDNA-Human Adult Normal Tissue Kidney (Invitrogen). The hSGLT2 sequence was cloned into pcDNA3.1(+) for mammalian expression and stably transfected into chinese hamster ovary (CHO) cells. SGLT2-expressing clones were selected based on resistance to G418 antibiotic (Geneticin) and activity in the ^14C-α-methyl-D-glucopyranoside (^14C-AMG) uptake assay.
Test 2: Inhibitory Effects on Human SGLT2 Activities
(§1) For sodium-dependent glucose transport assay, cells expressing hSGLT2 were seeded into a 96-well culture plate at a density of 5×10^4 cells/well in RPMI medium 1640 containing 10% fetal bovine serum. The cells were used 1 day after plating. They were incubated in pretreatment buffer (10 mM HEPES, 5 mM Tris, 140 mM choline chloride, 2 mM KCl, 1 mM CaCl2, and 1 mM MgCl2, pH 7.4) at 37° C. for 10 min. They were then incubated in uptake buffer (10 mM HEPES, 5 mM Tris, 140 mM NaCl, 2 mM KCl, 1 mM CaCl2, 1 mM MgCl2, and 1 mM ^14C-nonlabeled AMG pH 7.4) containing ^14C-labeled AMG (8 μM) and the inventive compound or dimethyl sulfoxide (DMSO) vehicle at 37° C. for 2 h. Cells were washed twice with washing buffer (pretreatment buffer containing 10 mM AMG at room temperature) and then the radioactivity was measured using a liquid scintillation counter. IC50 was determined by nonlinear regression analysis using GraphPad PRISM [Katsuno, K. et al. J. Pharmacol. Exp. Ther. 2007, 320, 323-330; Han, S. et al. Diabetes, 2008, 57, 1723-1729].

[2] = molecular target: Human SGLT1 (hSGLT1) (Homo sapiens (Human), UniProt P13866); assay: Inhibitory effects on human SGLT1 activities (14C-AMG uptake, sodium-dependent glucose transport assay); format: cell-based; details: 37° C. for 2 h, single determinations
Experimental: Test 3: Inhibitory Effects on Human SGLT1 Activities
as §1, with “^14C-labeled” for “^14C-labeled AMG”, “inhibitor” for “the inventive compound”, “PRISM.” for “PRISM [Katsuno, K. et al. J. Pharmacol. Exp. Ther. 2007, 320, 323-330; Han, S. et al. Diabetes, 2008, 57, 1723-1729].”

Sequence of Human SGLT1 (hSGLT1) (P13866 whole entry): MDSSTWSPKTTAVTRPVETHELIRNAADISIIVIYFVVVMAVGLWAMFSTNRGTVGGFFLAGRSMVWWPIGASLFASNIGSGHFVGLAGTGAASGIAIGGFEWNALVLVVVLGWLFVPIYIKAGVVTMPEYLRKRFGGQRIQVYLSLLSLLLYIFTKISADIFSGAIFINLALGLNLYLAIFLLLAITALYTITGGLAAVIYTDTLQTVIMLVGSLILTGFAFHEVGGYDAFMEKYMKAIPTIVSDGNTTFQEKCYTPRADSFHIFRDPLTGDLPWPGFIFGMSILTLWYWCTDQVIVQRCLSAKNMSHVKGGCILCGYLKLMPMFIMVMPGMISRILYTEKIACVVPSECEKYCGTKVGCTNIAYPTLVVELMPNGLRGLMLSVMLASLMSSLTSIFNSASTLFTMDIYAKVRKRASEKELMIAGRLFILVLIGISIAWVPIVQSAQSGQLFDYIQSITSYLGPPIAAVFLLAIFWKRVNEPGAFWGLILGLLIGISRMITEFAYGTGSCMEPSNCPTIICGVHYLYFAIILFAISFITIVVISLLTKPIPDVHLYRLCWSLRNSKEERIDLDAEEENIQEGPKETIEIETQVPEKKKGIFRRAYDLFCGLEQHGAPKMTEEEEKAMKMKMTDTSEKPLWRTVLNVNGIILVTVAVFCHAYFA
Sequence of Human SGLT2 (hSGLT2) (P31639 whole entry): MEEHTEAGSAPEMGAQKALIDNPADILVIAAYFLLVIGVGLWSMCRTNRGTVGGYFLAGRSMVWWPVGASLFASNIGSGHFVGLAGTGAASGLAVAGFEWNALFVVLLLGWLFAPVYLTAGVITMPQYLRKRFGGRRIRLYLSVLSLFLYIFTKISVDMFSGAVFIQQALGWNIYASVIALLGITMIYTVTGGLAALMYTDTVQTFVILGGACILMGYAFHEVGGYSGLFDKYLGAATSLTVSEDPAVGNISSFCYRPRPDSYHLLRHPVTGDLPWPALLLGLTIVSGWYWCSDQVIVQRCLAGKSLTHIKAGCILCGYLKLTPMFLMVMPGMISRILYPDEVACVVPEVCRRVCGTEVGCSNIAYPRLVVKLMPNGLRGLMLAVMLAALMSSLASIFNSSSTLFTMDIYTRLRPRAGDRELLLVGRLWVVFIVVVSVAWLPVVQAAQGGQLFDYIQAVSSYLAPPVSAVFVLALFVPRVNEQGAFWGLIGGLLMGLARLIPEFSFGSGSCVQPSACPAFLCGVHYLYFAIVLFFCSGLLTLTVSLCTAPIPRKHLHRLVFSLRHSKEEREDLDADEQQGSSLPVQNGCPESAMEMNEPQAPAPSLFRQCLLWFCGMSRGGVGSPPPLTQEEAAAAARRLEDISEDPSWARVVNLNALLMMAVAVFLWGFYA

Row | SMILES | pIC50 [1] | pIC50 [2]
1 | CCc1ccc(Cc2cc([C@@H]3O[C@H](CO)[C@@H](O)[C@H](O)[C@H]3O)c3c(c2C)CCCC3)cc1 [Compound E044, (2S,3R,4R,5S,6R)-2-(3-(4-Ethylbenzyl)-4-methyl-5,6,7,8-tetrahydronaphthalen-1-yl)-6-(hydroxymethyl)tetrahydro-2H-pyran-3,4,5-triol] | 9.23 | 7.98
2 | Cc1ccc(Cc2cc([C@@H]3O[C@H](CO)[C@@H](O)[C@H](O)[C@H]3O)c3c(c2Cl)OCCC3)cc1 [Compound E045, (2S,3R,4R,5S,6R)-2-(8-Chloro-7-(4-methylbenzyl)chroman-5-yl)-6-(hydroxymethyl)tetrahydro-2H-pyran-3,4,5-triol] | 8.72 | 7.44
3 | Cc1ccc(Cc2cc([C@@H]3O[C@H](CO)[C@@H](O)[C@H](O)[C@H]3O)c3c(c2Cl)CCO3)cc1 [Compound E046, (2S,3R,4R,5S,6R)-2-(4-Chloro-5-(4-methylbenzyl)-2,3-dihydrobenzofuran-7-yl)-6-(hydroxymethyl)tetrahydro-2H-pyran-3,4,5-triol] | 8.85 | 7.52
4 | CCOc1ccc(Cc2cc([C@@H]3O[C@H](CO)[C@@H](O)[C@H](O)[C@H]3O)c3c(c2C)CCCC3)cc1 [Compound E047, (2S,3R,4R,5S,6R)-2-(3-(4-Ethoxybenzyl)-4-methyl-5,6,7,8-tetrahydronaphthalen-1-yl)-6-(hydroxymethyl)tetrahydro-2H-pyran-3,4,5-triol] | 8.89 | 7.57
5 | Cc1ccc(Cc2cc([C@@H]3O[C@H](CO)[C@@H](O)[C@H](O)[C@H]3O)c3c(c2Cl)CCCO3)cc1 [Compound E052, (2S,3R,4R,5S,6R)-2-(5-Chloro-6-(4-methylbenzyl)chroman-8-yl)-6-(hydroxymethyl)tetrahydro-2H-pyran-3,4,5-triol] | 8.96 | 8.04
6 | OC[C@H]1O[C@@H](c2cc(Cc3cc4ccccc4s3)c(Cl)c3c2OCO3)[C@H](O)[C@@H](O)[C@@H]1O [Compound E053, (2S,3R,4R,5S,6R)-2-(6-(Benzo[b]thiophen-2-ylmethyl)-7-chlorobenzo[d][1,3]dioxol-4-yl)-6-(hydroxymethyl)tetrahydro-2H-pyran-3,4,5-triol] | 8.82 | 7.39
7 | OC[C@H]1O[C@@H](c2cc(Cc3ccc(-c4ccc(F)cc4)s3)c(Cl)c3c2OCCO3)[C@H](O)[C@@H](O)[C@@H]1O [Compound E054, (2S,3R,4R,5S,6R)-2-(8-Chloro-7-((5-(4-fluorophenyl)thiophen-2-yl)methyl)-2,3-dihydrobenzo[b][1,4]dioxin-5-yl)-6-(hydroxymethyl)tetrahydro-2H-pyran-3,4,5-triol] | 8.96 | 6.90
8 | OC[C@H]1O[C@@H](c2cc(Cc3cc4ccccc4s3)c(Cl)c3c2CCO3)[C@H](O)[C@@H](O)[C@@H]1O [Compound E055, (2S,3R,4R,5S,6R)-2-(6-(Benzo[b]thiophen-2-ylmethyl)-7-chloro-2,3-dihydrobenzofuran-4-yl)-6-(hydroxymethyl)tetrahydro-2H-pyran-3,4,5-triol] | 8.85 | 6.83
9 | OC[C@H]1O[C@@H](c2cc(Cc3cc4ccccc4s3)c(Cl)c3c2OCCO3)[C@H](O)[C@@H](O)[C@@H]1O [Compound E056, (2S,3R,4R,5S,6R)-2-(7-(Benzo[b]thiophen-2-ylmethyl)-8-chloro-2,3-dihydrobenzo[b][1,4]dioxin-5-yl)-6-(hydroxymethyl)tetrahydro-2H-pyran-3,4,5-triol] | 8.66 | 7.85
10 | CCc1ccc(Cc2cc([C@@H]3O[C@H](CO)[C@@H](O)[C@H](O)[C@H]3O)c3c(c2Br)CCCC3)cc1 [Compound E057, (2S,3R,4R,5S,6R)-2-(4-Bromo-3-(4-ethylbenzyl)-5,6,7,8-tetrahydronaphthalen-1-yl)-6-(hydroxymethyl)tetrahydro-2H-pyran-3,4,5-triol] | 9.07 | 7.96
11 | CCOc1ccc(Cc2cc([C@@H]3O[C@H](CO)[C@@H](O)[C@H](O)[C@H]3O)c3c(c2Br)CCCC3)cc1 [Compound E058, (2S,3R,4R,5S,6R)-2-(4-Bromo-3-(4-ethoxybenzyl)-5,6,7,8-tetrahydronaphthalen-1-yl)-6-(hydroxymethyl)tetrahydro-2H-pyran-3,4,5-triol] | 9.06 | 7.77
12 | CCOc1ccc(Cc2cc([C@@H]3O[C@H](CO)[C@@H](O)[C@H](O)[C@H]3O)c3c(c2Cl)SCC3)cc1 [Compound E059, (2S,3R,4R,5S,6R)-2-(7-Chloro-6-(4-ethoxybenzyl)-2,3-dihydrobenzo[b]thiophen-4-yl)-6-(hydroxymethyl)tetrahydro-2H-pyran-3,4,5-triol] | 8.96 | 7.02
13 | OC[C@H]1O[C@@H](c2cc(Cc3ccc(C4CC4)cc3)c(Cl)c3c2CCS3)[C@H](O)[C@@H](O)[C@@H]1O [Compound E060, (2S,3R,4R,5S,6R)-2-(7-Chloro-6-(4-cyclopropylbenzyl)-2,3-dihydrobenzo[b]thiophen-4-yl)-6-(hydroxymethyl)tetrahydro-2H-pyran-3,4,5-triol] | 9.17 | 7.39
14 | OC[C@H]1O[C@@H](c2cc(Cc3ccc(C4CCC4)cc3)c(Cl)c3c2OCCC3)[C@H](O)[C@@H](O)[C@@H]1O [Compound E062, (2S,3R,4R,5S,6R)-2-(5-Chloro-6-(4-cyclobutylbenzyl)chroman-8-yl)-6-(hydroxymethyl)tetrahydro-2H-pyran-3,4,5-triol] | 8.96 | 6.79

Other lines, results leading:

Row | pIC50 [1] | pIC50 [2] | SMILES
15 | 9.30 | 7.47 | COc1ccc(Cc2cc([C@@H]3O[C@H](SC)[C@@H](O)[C@H](O)[C@H]3O)c3c(c2Cl)CCC3)cc1 [Compound E048, (2S,3R,4R,5S,6R)-2-(7-Chloro-6-(4-methoxybenzyl)-2,3-dihydro-1H-inden-4-yl)-6-(methylthio)tetrahydro-2H-pyran-3,4,5-triol]
16 | 9.10 | 7.30 | CSc1ccc(Cc2cc([C@@H]3O[C@H](CO)[C@@H](O)[C@H](O)[C@H]3O)c3c(c2Cl)OCO3)cc1 [Compound E049, (2S,3R,4R,5S,6R)-2-(7-Chloro-6-(4-(methylthio)benzyl)benzo[d][1,3]dioxol-4-yl)-6-(hydroxymethyl)tetrahydro-2H-pyran-3,4,5-triol]
17 | 9.07 | 7.63 | CSc1ccc(Cc2cc([C@@H]3O[C@H](CO)[C@@H](O)[C@H](O)[C@H]3O)c3c(c2Cl)OCCO3)cc1 [Compound E050, (2S,3R,4R,5S,6R)-2-(8-Chloro-7-(4-(methylthio)benzyl)-2,3-dihydrobenzo[b][1,4]dioxin-5-yl)-6-(hydroxymethyl)tetrahydro-2H-pyran-3,4,5-triol]
18 | 9.31 | 7.20 | CCOc1ccc(Cc2cc([C@@H]3O[C@H](SC)[C@@H](O)[C@H](O)[C@H]3O)c3c(c2Cl)OCO3)cc1 [Compound E051, (2S,3R,4R,5S,6R)-2-(7-Chloro-6-(4-ethoxybenzyl)benzo[d][1,3]dioxol-4-yl)-6-(methylthio)tetrahydro-2H-pyran-3,4,5-triol]
19 | 8.77 | 7.57 | Cc1ccc(Cc2cc([C@@H]3O[C@H](CO)[C@@H](O)[C@H](O)[C@H]3O)c3c(c2C)OCO3)cc1 [Compound E061, (2R,3S,4R,5R,6S)-2-(Hydroxymethyl)-6-(7-methyl-6-(4-methylbenzyl)benzo[d][1,3]dioxol-4-yl)tetrahydro-2H-pyran-3,4,5-triol]
20 | 8.80 | 7.18 | COc1ccc(Cc2cc([C@@H]3O[C@H](CO)[C@@H](O)[C@H](O)[C@H]3O)c3c(c2C)OCO3)cc1 [Compound E063, (2R,3S,4R,5R,6S)-2-(Hydroxymethyl)-6-(6-(4-methoxybenzyl)-7-methylbenzo[d][1,3]dioxol-4-yl)tetrahydro-2H-pyran-3,4,5-triol]
21 | 8.96 | 7.42 | CCc1ccc(Cc2cc([C@@H]3O[C@H](CO)[C@@H](O)[C@H](O)[C@H]3O)c3c(c2C)OCO3)cc1 [Compound E064, (2S,3R,4R,5S,6R)-2-(6-(4-Ethylbenzyl)-7-methylbenzo[d][1,3]dioxol-4-yl)-6-(hydroxymethyl)tetrahydro-2H-pyran-3,4,5-triol]
